# Target: Gag-Pol polyprotein (Human immunodeficiency virus type 1 group M subtype B (isolate HXB2), UniProt P04585)
# Assay: Microtiter Plate Assay for Strand Transfer
# Conditions: pH 7.8; 37 °C
# Protocol: The microtiter plate assay for stand transfer was performed with an immobilized donor substrate and a target substrate biotinylated at the 3-prime end of each DNA strand. Integrase was first assembled with immobilized LTR oligonucleotides for 30 min. Inhibitors were added after assembly and washings. For the strand transfer reaction, it was initiated with the addition of the biotinylated target substrate. Strand transfer reaction mixtures were incubated for additional 30 min, and the strand transfer products were detected by using alkaline phosphatase-conjugated avidin (Boehringer Mannheim, Indianapolis, Ind.).
structure (smiles),measurement,value
"CNC(=O)c1nc(C(C)(C)NC(=O)C(=O)N(C)C)n(C)c(=O)c1O [N-{2-[5-hydroxy-1-methyl-4-(methylcarbamoyl)-6-oxo-1,6-dihydropyrimidin-2-yl]propan-2-yl}-N',N'-dimethylethanediamide]",IC50,> 5 µM
